In patent publication US20120157451A1, “RAF INHIBITOR COMPOUNDS AND METHODS OF USE THEREOF” (GENENTECH, INC, priority 2009, published 2012):

Biological target: T1, V600E full-length B-Raf (Homo sapiens, UniProt P15056, V600E)
T1 construct: made in house; host or cells: Sf9 insect cells (baculovirus)
Test: B-Raf IC50 assay (incorporation of radiolabeled phosphate from [γ-33P]ATP into FSBA-modified wild-type MEK)
Assay type: biochemical
Settings: bound stated
Text: Determining the activity of Raf in the sample is possible by a number of direct and indirect detection methods (US 2004/0082014). Activity of human recombinant B-Raf protein may be assessed in vitro by assay of the incorporation of radio labeled phosphate to recombinant MAP kinase (MEK), a known physiologic substrate of B-Raf, according to US 2004/0127496 and WO 03/022840.
Activity of human recombinant B-Raf protein may be assessed in vitro by assay of the incorporation of radio labeled phosphate to recombinant MAP kinase (MEK), a known physiologic substrate of B-Raf, according to US 2004/0127496 and WO 03/022840. Catalytically active human recombinant B-Raf protein is obtained by purification from sf9 insect cells infected with a human B-Raf recombinant baculovirus expression vector.
Incubations were carried out at 22° C. in a Costar 3365 plate (Corning). Prior to the assay, the B-Raf and FSBA-MEK were preincubated together in assay buffer at 1.5× (20 μL of 30 nM and 1.5 μM, respectively) for 15 minutes, and the assay was initiated by the addition of 10 μL of 10 μM ATP. Following the 60-minute incubation, the assay mixtures were quenched by the addition of 100 μL of 25% TCA, the plate was mixed on a rotary shaker for 1 minute, and the product was captured on a Perkin-Elmer GF/B filter plate using a Tomtec Mach III Harvester. After sealing the bottom of the plate, […] of Bio-Safe II (Research Products International) scintillation cocktail were added to each well and the plate was top-sealed and counted in a Topcount NXT (Packard).

T1 sequence (P15056 whole entry V600E): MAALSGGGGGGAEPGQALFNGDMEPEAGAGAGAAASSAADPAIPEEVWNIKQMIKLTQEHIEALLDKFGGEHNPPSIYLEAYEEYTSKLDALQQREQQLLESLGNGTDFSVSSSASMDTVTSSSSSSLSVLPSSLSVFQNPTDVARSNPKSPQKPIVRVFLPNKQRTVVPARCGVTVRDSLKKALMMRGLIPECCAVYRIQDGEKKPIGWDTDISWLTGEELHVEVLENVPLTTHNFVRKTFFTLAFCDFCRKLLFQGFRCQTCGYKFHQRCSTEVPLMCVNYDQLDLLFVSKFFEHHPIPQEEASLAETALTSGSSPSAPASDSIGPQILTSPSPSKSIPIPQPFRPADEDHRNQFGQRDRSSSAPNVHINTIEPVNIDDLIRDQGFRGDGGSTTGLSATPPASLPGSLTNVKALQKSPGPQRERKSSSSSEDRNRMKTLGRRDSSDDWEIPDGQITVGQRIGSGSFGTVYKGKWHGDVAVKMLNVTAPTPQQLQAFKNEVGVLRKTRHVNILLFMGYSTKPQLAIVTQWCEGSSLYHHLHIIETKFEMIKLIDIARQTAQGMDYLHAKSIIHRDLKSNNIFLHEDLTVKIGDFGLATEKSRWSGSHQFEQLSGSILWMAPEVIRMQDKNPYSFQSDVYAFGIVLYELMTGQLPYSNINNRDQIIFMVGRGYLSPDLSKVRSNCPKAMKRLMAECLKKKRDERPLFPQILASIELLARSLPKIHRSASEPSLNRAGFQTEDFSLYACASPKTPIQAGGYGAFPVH

| Structure (SMILES) | IC50 [nM] |
| --- | --- |
| CCCS(=O)(=O)Nc1ccc(F)c(C(=O)Nc2cnc3cc(OC(C)C)nn3c2)c1F [Example 2, 2,6-difluoro-N-(2-isopropoxypyrazolo[1,5-a]pyrimidin-6-yl)-3-(propylsulfonamido)benzamide] | < 150 |
| CCCS(=O)(=O)Nc1ccc(F)c(C(=O)Nc2cnc3cc(OCC)nn3c2)c1F [Example 3, N-(2-ethoxypyrazolo[1,5-a]pyrimidin-6-yl)-2,6-difluoro-3-(propylsulfonamido)benzamide] | < 150 |
| CCCS(=O)(=O)Nc1ccc(F)c(C(=O)Nc2cnc3cc(C4CCNCC4)nn3c2)c1F [Example 4, 2,6-difluoro-N-(2-(piperidin-4-yl)pyrazolo[1,5-a]pyrimidin-6-yl)-3-(propylsulfonamido)benzamide] | < 300 |
| CCCS(=O)(=O)Nc1ccc(F)c(C(=O)Nc2cnc3cc(-c4ccc(Cl)cc4)nn3c2)c1F [Example 6, N-(2-(4-chlorophenyl)pyrazolo[1,5-a]pyrimidin-6-yl)-2,6-difluoro-3-(propylsulfonamido)benzamide] | < 150 |
| CCCS(=O)(=O)Nc1ccc(F)c(C(=O)Nc2cnc3cc(-c4ccc(F)cc4)nn3c2)c1F [Example 7, 2,6-difluoro-N-(2-(4-fluorophenyl)pyrazolo[1,5-a]pyrimidin-6-yl)-3-(propylsulfonamido)benzamide] | < 150 |
| CCCS(=O)(=O)Nc1ccc(F)c(C(=O)Nc2cnc3cc(-c4ccc(C)cc4)nn3c2)c1F [Example 8, 2,6-difluoro-3-(propylsulfonamido)-N-(2-p-tolylpyrazolo[1,5-a]pyrimidin-6-yl)benzamide] | < 150 |
| CCCS(=O)(=O)Nc1ccc(F)c(C(=O)Nc2cnc3cc(-c4cccc(F)c4)nn3c2)c1F [Example 9, 2,6-difluoro-N-(2-(3-fluorophenyl)pyrazolo[1,5-a]pyrimidin-6-yl)-3-(propylsulfonamido)benzamide] | < 150 |
| CCCS(=O)(=O)Nc1ccc(F)c(C(=O)Nc2cnc3cc(-c4cnn(C)c4)nn3c2)c1F [Example 12, 2,6-difluoro-N-(2-(1-methyl-1H-pyrazol-4-yl)pyrazolo[1,5-a]pyrimidin-6-yl)-3-(propylsulfonamido)benzamide] | < 150 |
| CCCS(=O)(=O)Nc1ccc(F)c(C(=O)Nc2cnc3cc(-c4cnn(CCO)c4)nn3c2)c1F [Example 13, 2,6-difluoro-N-(2-(1-(2-hydroxyethyl)-1H-pyrazol-4-yl)pyrazolo[1,5-a]pyrimidin-6-yl)-3-(propylsulfonamido)benzamide] | < 150 |
| CCCS(=O)(=O)Nc1ccc(F)c(C(=O)Nc2cnc3cc(SC)nn3c2)c1F [Example 14, 2,6-difluoro-N-(2-(methylthio)pyrazolo[1,5-a]pyrimidin-6-yl)-3-(propylsulfonamido)benzamide] | < 150 |
| CCCS(=O)(=O)Nc1ccc(F)c(C(=O)Nc2cnc3cc(OCCO)nn3c2)c1F [Example 15, 2,6-difluoro-N-(2-(2-hydroxyethoxy)pyrazolo[1,5-a]pyrimidin-6-yl)-3-(propylsulfonamido)benzamide] | < 150 |
| CCCS(=O)(=O)Nc1ccc(F)c(C(=O)Nc2cnc3cc(OCCOC)nn3c2)c1F [Example 16, 2,6-difluoro-N-(2-(2-methoxyethoxy)pyrazolo[1,5-a]pyrimidin-6-yl)-3-(propylsulfonamido)benzamide] | < 150 |
| CCCS(=O)(=O)Nc1ccc(F)c(C(=O)Nc2cnc3cc(NC(C)C)nn3c2)c1F [Example 18, 2,6-difluoro-N-(2-(isopropylamino)pyrazolo[1,5-a]pyrimidin-6-yl)-3-(propylsulfonamido)benzamide] | < 300 |
| CCCS(=O)(=O)Nc1ccc(Cl)c(C(=O)Nc2cnc3cc(OC)nn3c2)c1F [Example 19, 6-chloro-2-fluoro-N-(2-methoxypyrazolo [1,5-a]pyrimidin-6-yl)-3-(propylsulfonamido) benzamide] | < 150 |
| CCCS(=O)(=O)Nc1ccc(F)c(C(=O)Nc2cnc3cc(OC)nn3c2)c1Cl [Example 20, 2-chloro-6-fluoro-N-(2-methoxypyrazolo [1,5-a]pyrimidin-6-yl)-3-(propylsulfonamido) benzamide] | < 150 |
| COc1cc2ncc(NC(=O)c3c(F)ccc(NS(=O)(=O)CCCF)c3F)cn2n1 [Example 21, 2,6-difluoro-3-(3-fluoropropyl-sulfonamido)-N-(2-methoxypyrazolo [1,5-a]pyrimidin-6-yl)benzamide] | < 150 |
| COc1cc2ncc(NC(=O)c3c(F)ccc(NS(=O)(=O)CC(C)C)c3F)cn2n1 [Example 25, 2,6-difluoro-N-(2-methoxypyrazolo [1,5-a]pyrimidin-6-yl)-3-(2-methylpropyl-sulfonamido) benzamide] | < 150 |
| CCCS(=O)(=O)Nc1ccc(F)c(C(=O)Nc2cnc3cc(C)nn3c2)c1F [Example 26, 2,6-difluoro-N-(2-methylpyrazolo [1,5-a]pyrimidin-6-yl)-3-(propylsulfonamido) benzamide] | < 150 |
| CCCS(=O)(=O)Nc1ccc(F)c(C(=O)Nc2cnc3ccnn3c2)c1F [Example 27, 2,6-difluoro-3-(propylsulfonamido)-N-(pyrazolo[1,5-a]pyrimidin-6-yl)benzamide] | < 300 |
| CCCS(=O)(=O)Nc1ccc(F)c(C(=O)Nc2cnc3cc(C4CC4)nn3c2)c1F [Example 28, N-(2-cyclopropylpyrazolo [1,5-a]pyrimidin-6-yl)-2,6-difluoro-3-(propylsulfonamido) benzamide] | < 150 |
| CCCS(=O)(=O)Nc1ccc(F)c(C(=O)Nc2cnc3cc(CC)nn3c2)c1F [Example 29, N-(2-ethylpyrazolo[1,5-a]pyrimidin-6-yl)-2,6-difluoro-3-(propylsulfonamido) benzamide] | < 150 |
| CCCS(=O)(=O)Nc1ccc(F)c(C(=O)Nc2cnc3cc(C4CCCC4)nn3c2)c1F [Example 30, N-(2-cyclopentylpyrazolo [1,5-a]pyrimidin-6-yl)-2,6-difluoro-3-(propylsulfonamido) benzamide] | < 150 |
| CCCS(=O)(=O)Nc1ccc(F)c(C(=O)Nc2cnc3cc(C4CCOC4)nn3c2)c1F (stereo not drawn) [Example 31, 2,6-difluoro-3-(propylsulfonamido)-N-(2-(tetrahydrofuran-3-yl)pyrazolo[1,5-a]pyrimidin-6-yl)benzamide] | < 300 |
| CCCS(=O)(=O)Nc1ccc(F)c(C(=O)Nc2cnc3cc(C(F)(F)F)nn3c2)c1F [Example 32, 2,6-difluoro-3-(propylsulfonamido)-N-(2-(trifluoromethyl)pyrazolo[1,5-a]pyrimidin-6-yl)benzamide] | < 150 |
| CCCS(=O)(=O)Nc1ccc(Cl)c(C(=O)Nc2cnc3cc(-c4ccccc4)nn3c2)c1F [Example 33, 6-chloro-2-fluoro-N-(2-phenylpyrazolo [1,5-a]pyrimidin-6-yl)-3-(propylsulfonamido) benzamide] | < 150 |
| CCCS(=O)(=O)Nc1ccc(F)c(C(=O)Nc2cnc3cc(NC)nn3c2)c1F [Example 35, 2,6-difluoro-N-(2-(methylamino)pyrazolo[1,5-a]pyrimidin-6-yl)-3-(propylsulfonamido) benzamide] | < 150 |
| CCCS(=O)(=O)Nc1ccc(F)c(C(=O)Nc2cnc3cc(N4CCOCC4)nn3c2)c1F [Example 36, 2,6-difluoro-N-(2-morpholinopyrazolo [1,5-a]pyrimidin-6-yl)-3-(propylsulfonamido) benzamide] | < 300 |
